Measured values from patent publication US8901118B2, “Compounds and methods for kinase modulation, and indications therefor” (Plexxikon Inc., priority 2010, dated 2014).

How the values were obtained:
TrkA kinase = TrkA kinase (Homo sapiens, UniProt P04629); test: TrkA kinase biochemical activity assay (AlphaScreen); conditions: 100 μM ATP; read-out: Biochemical Inhibition IC50 TrkA
Protocol: In one assay the biochemical activity IC50 values are determined with respect to inhibition of TrkA kinase activity, where inhibition of phosphorylation of a peptide substrate is measured as a function of compound concentration. Compounds to be tested, dissolved in DMSO (1 μL), are added to a white 384-well plate (Costar #3705). Working stocks of TrkA kinase (UBI), biotin-(E4Y)10 substrate (Upstate Biotech, Cat#12-440), and ATP (Sigma, Cat#A-3377) are prepared in 25 mM Hepes pH 7.5, 10 mM MnCl2, 1 mM DTT, 0.01% BSA, and 0.01% Tween-20. All components are added to the 384-well plate for a final concentration of 1 ng/well TrkA, 30 nM biotin-(E4Y)10 and 100 μM ATP in a volume of 20 μL. Each sample is at 5% DMSO. The plate is shaken for 1 minute at 1200 rpm, spun for 1 minute at 1000 rpm, then incubated for 40 minutes at room temperature. Just before use, working stocks of donor and acceptor beads from the AlphaScreen PY20 Detection Kit (PerkinElmer, Cat#676601M) are prepared in 25 mM Hepes pH 7.5, 100 mM EDTA. 0.01% BSA. Donor Beads solution (Streptavidin beads) is added (5 μL) to each well to final bead concentration of 10 μg/mL. The plate is incubated at room temperature for 20 minutes. Acceptor Beads solution (PY20 coated beads) are then added to each well (5 μL) to a final concentration of bead at 10 μg/mL. The plates are incubated at room temperature for 60 minutes. Fluorescence signal is recorded on the Envision reader. Phosphorylated substrate results in binding of the PY20 antibody and association of the donor and acceptor beads such that signal correlates with kinase activity. The signal vs. compound concentration is used to determine the IC50. Similar assays are used for TrkB and Trk C kinase.

[1] = Relative solubility by turbidity in aqueous buffers (pH 1.5, 4.5, 6.8, 7.4); assay type: physicochemical; conditions: for turbidity threshold (L, M, H) 1.4: pH 1.5 (SGF); for turbidity threshold (L, M, H) 4.5: pH 4.5 (SIF); for turbidity threshold (L, M, H) 6.8: pH 6.8 (SIF); for turbidity threshold (L, M, H) 7.4: pH 7.4 (HEPES)
Protocol: As an indication of relative solubility, the turbidity of compounds in aqueous solutions is assessed. To assess possible compound properties in different physiological compartments, such as stomach, intestine, and blood, a series of aqueous buffers with varying pH is used. Thus each compound is diluted into four different physiologically relevant buffers and solution turbidity is measured by spectrophotometry.
Compounds are dissolved at a concentration of 25 mM in dimethyl sulfoxide, then serially diluted 1:1 into a 96 well plate, diluting 10 times in pure dimethyl sulfoxide, with the final well of each row a dimethyl sulfoxide blank. In an assay plate, 99 μL of appropriate buffer is added to each well, and 1 μL of each sample dilution is added to the buffer, achieving a range of final total concentrations in aqueous solutions having different pH. The buffers used are Simulated Gastric Fluid (SGF-pH 1.5) 0.5M NaCl, pH 1.5; Simulated Intestinal fluid (SIF-pH 4.5 and pH 6.8) 0.05M NaH2PO4, pH 4.5 and 6.8; and Hepes Buffer (HEPES-pH 7.4) 10 mM HEPES, 150 mM NaCl, pH 7.4. Control compounds pyrene, estriol and propranolol HCl are also assessed. Plates are spun and then mixed for 1 minute, and the absorbance is read using a Tecan Safire II to read wavelengths in the visible range (490, 535, and 650 nm) at four locations per well, reflecting the degree of turbidity present. The average optical density for each wavelength in each well is graphed vs. compound concentration, and the concentration at which the curve crosses a threshold O.D. of 0.01 for each wavelength is reported as the endpoint turbidity assay result. The average of the three wavelengths is used to compare turbidity of compounds.

TrkA kinase, sequence (P04629 33-796): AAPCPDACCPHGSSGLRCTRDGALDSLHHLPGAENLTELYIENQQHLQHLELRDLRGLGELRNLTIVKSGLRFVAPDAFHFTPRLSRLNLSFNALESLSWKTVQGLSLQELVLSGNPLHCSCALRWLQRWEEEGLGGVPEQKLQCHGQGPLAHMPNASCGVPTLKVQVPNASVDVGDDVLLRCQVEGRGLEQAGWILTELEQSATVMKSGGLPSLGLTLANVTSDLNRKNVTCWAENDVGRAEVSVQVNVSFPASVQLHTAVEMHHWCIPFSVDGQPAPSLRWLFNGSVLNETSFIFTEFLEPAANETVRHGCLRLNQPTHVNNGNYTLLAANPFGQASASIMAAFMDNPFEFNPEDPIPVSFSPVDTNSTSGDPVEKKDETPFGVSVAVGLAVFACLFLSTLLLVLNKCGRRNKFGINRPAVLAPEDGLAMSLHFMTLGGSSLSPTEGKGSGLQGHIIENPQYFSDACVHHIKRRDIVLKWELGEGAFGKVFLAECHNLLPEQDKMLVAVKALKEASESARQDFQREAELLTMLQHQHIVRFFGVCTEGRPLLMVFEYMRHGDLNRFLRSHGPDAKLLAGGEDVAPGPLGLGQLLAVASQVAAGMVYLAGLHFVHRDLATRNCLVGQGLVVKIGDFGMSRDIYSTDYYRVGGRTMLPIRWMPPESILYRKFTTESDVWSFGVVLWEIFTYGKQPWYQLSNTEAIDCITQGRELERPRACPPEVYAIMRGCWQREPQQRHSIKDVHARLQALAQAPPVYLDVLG

SMILES	IC50 (TrkA kinase) [µM]	turbidity threshold (L, M, H) 1.4 [1]	turbidity threshold (L, M, H) 4.5 [1]	turbidity threshold (L, M, H) 6.8 [1]	turbidity threshold (L, M, H) 7.4 [1]
CCc1ccc(Nc2ccc(C(=O)c3c[nH]c4ncnc(NC5CCC(F)(F)CC5)c34)c(F)n2)cn1 [Compound P-4096, [4-[(4,4-difluorocyclohexyl)amino]-7H-pyrrolo[2,3-d]pyrimidin-5-yl]-[6-[(6-ethyl-3-pyridyl)amino]-2-fluoro-3-pyridyl]methanone]	< 0.1	H (high solubility if the threshold concentration is >250 μm)	L (low solubility if the threshold concentration is <31.3 μM)	L (low solubility if the threshold concentration is <31.3 μM)	L (low solubility if the threshold concentration is <31.3 μM)
CNc1ncnc2[nH]cc(C(=O)c3ccc(Nc4ccc(C(F)(F)F)nc4)nc3F)c12 [Compound P-4092, [2-fluoro-6-[[6-(trifluoromethyl)-3-pyridyl]amino]-3-pyridyl]-[4-(methylamino)-7H-pyrrolo[2,3-d]pyrimidin-5-yl]methanone]	< 0.01	M (moderate solubility if the threshold concentration is 31.3 μM to 250 μM)	M (moderate solubility if the threshold concentration is 31.3 μM to 250 μM)	M (moderate solubility if the threshold concentration is 31.3 μM to 250 μM)	M (moderate solubility if the threshold concentration is 31.3 μM to 250 μM)
COc1ccc(Nc2ccc(C(=O)c3c[nH]c4ncnc(N5CCCCC5)c34)c(F)n2)cn1 [Compound P-4069, [2-fluoro-6-[(6-methoxy-3-pyridyl)amino]-3-pyridyl]-[4-(1-piperidyl)-7H-pyrrolo[2,3-d]pyrimidin-5-yl]methanone]	< 0.1				
Fc1nc(NC2CCC(F)(F)CC2)ccc1Cc1c[nH]c2ncc(Cl)cc12 [Compound P-3013, [5-(5-Chloro-1H-pyrrolo[2,3-b]pyridin-3-ylmethyl)-6-fluoro-pyridin-2-yl]-(4,4-difluoro-cyclohexyl)-amine]		L (low solubility if the threshold concentration is <31.3 μM)	L (low solubility if the threshold concentration is <31.3 μM)	L (low solubility if the threshold concentration is <31.3 μM)	L (low solubility if the threshold concentration is <31.3 μM)
CCc1ccc(Nc2ccc(C(=O)c3c[nH]c4ncnc(NCC(C)(C)O)c34)c(F)n2)cn1 [Compound P-4064, [6-[(6-ethyl-3-pyridyl)amino]-2-fluoro-3-pyridyl]-[4-[(2-hydroxy-2-methyl-propyl)amino]-7H-pyrrolo[2,3-d]pyrimidin-5-yl]methanone]	< 0.01				
CCc1ccc(Nc2ccc(C(=O)c3c[nH]c4ncnc(Nc5ccc(C)nc5)c34)c(F)n2)cn1 [Compound P-4086, [6-[(6-ethyl-3-pyridyl)amino]-2-fluoro-3-pyridyl]-[4-[(6-methyl-3-pyridyl)amino]-7H-pyrrolo[2,3-d]pyrimidin-5-yl]methanone]	< 0.1				
COc1ccc(Nc2ccc(C(=O)c3c[nH]c4ncnc(NC(C)(C)C)c34)c(F)n2)cn1 [Compound P-4055, [4-(tert-butylamino)-7H-pyrrolo[2,3-d]pyrimidin-5-yl]-[2-fluoro-6-[(6-methoxy-3-pyridyl)amino]-3-pyridyl]methanone]		M (moderate solubility if the threshold concentration is 31.3 μM to 250 μM)	M (moderate solubility if the threshold concentration is 31.3 μM to 250 μM)	L (low solubility if the threshold concentration is <31.3 μM)	L (low solubility if the threshold concentration is <31.3 μM)
COc1ccc(Nc2ccc(C(=O)c3c[nH]c4ncnc(NC5CCC(F)(F)CC5)c34)c(F)n2)cn1 [Compound P-4056, [4-[(4,4-difluorocyclohexyl)amino]-7H-pyrrolo[2,3-d]pyrimidin-5-yl]-[2-fluoro-6-[(6-methoxy-3-pyridyl)amino]-3-pyridyl]methanone]		M (moderate solubility if the threshold concentration is 31.3 μM to 250 μM)	M (moderate solubility if the threshold concentration is 31.3 μM to 250 μM)	M (moderate solubility if the threshold concentration is 31.3 μM to 250 μM)	L (low solubility if the threshold concentration is <31.3 μM)
Clc1ccc(Nc2ncc(Cc3c[nH]c4ncc(Cl)cc34)cn2)cc1 [Compound P-3011, (4-Chloro-phenyl)-[5-(5-chloro-1H-pyrrolo[2,3-b]pyridin-3-ylmethyl)-pyrimidin-2-yl]-amine]	> 1				

The next lines start with results.

IC50 (TrkA kinase) [µM]	SMILES	turbidity threshold (L, M, H) 1.4 [1]	turbidity threshold (L, M, H) 4.5 [1]	turbidity threshold (L, M, H) 6.8 [1]	turbidity threshold (L, M, H) 7.4 [1]
< 0.01	COc1ccc(Nc2ccc(C(=O)c3c[nH]c4ncnc(NCC(F)(F)F)c34)c(F)n2)cn1 [Compound P-4084, [2-fluoro-6-[(6-methoxy-3-pyridyl)amino]-3-pyridyl]-[4-(2,2,2-trifluoroethylamino)-7H-pyrrolo[2,3-d]pyrimidin-5-yl]methanone]	M (moderate solubility if the threshold concentration is 31.3 μM to 250 μM)	M (moderate solubility if the threshold concentration is 31.3 μM to 250 μM)	M (moderate solubility if the threshold concentration is 31.3 μM to 250 μM)	H (high solubility if the threshold concentration is >250 μm)
< 0.01	CNc1ncnc2[nH]cc(C(=O)c3ccc(Nc4ccc(OC)nc4)nc3OC)c12 [Compound P-4085, [2-methoxy-6-[(6-methoxy-3-pyridyl)amino]-3-pyridyl]-[4-(methylamino)-7H-pyrrolo[2,3-d]pyrimidin-5-yl]methanone]				
< 0.01	Cc1ccc(Nc2ccc(C(=O)c3c[nH]c4ncnc(NCC5CC5)c34)c(F)n2)cn1 [Compound P-4113, [4-(cyclopropylmethylamino)-7H-pyrrolo[2,3-d]pyrimidin-5-yl]-[2-fluoro-6-[(6-methyl-3-pyridyl)amino]-3-pyridyl]methanone]				
> 1	Clc1cnc2[nH]cc(Cc3cnc(Nc4ccccc4Cl)nc3)c2c1 [Compound P-3015, (2-Chloro-phenyl)-[5-(5-chloro-1H-pyrrolo[2,3-b]pyridin-3-ylmethyl)-pyrimidin-2-yl]-amine]				
< 0.1	O=C(c1ccc(Nc2ccc(C3CC3)nc2)nc1F)c1c[nH]c2ncnc(NCC(F)(F)F)c12 [Compound P-4090, [6-[(6-cyclopropyl-3-pyridyl)amino]-2-fluoro-3-pyridyl]-[4-(2,2,2-trifluoroethylamino)-7H-pyrrolo[2,3-d]pyrimidin-5-yl]methanone]				
< 0.01	COc1ccc(Nc2ccc(C(=O)c3c[nH]c4ncnc(NC5CC5)c34)c(F)n2)cn1 [Compound P-4126, [4-(cyclopropylamino)-7H-pyrrolo[2,3-d]pyrimidin-5-yl]-[2-fluoro-6-[(6-methoxy-3-pyridyl)amino]-3-pyridyl]methanone]				
